Source: patent publication US20060018827A1, “Positron therapy of inflammation, infection and disease” (priority 2004, published 2006)

Experiments:
[1] = system: mammary tumors of PyMT mice; experiment: PET imaging of PyMT mice with ^18F-FDG; assay type: in vivo, mouse; details: PET 1 hour after i.p. 0.5-2.0 mCi
Method: Animals. All procedures involving mice were conducted in accordance with the National Institutes of Health regulations concerning the use and care of experimental animals. The study of mice was approved by the Albert Einstein College of Medicine (AECOM) Animal Use Committee. Transgenic mice expressing the polyoma middle T antigen (PyMT) in the mammary epithelium under the control of mouse mammary tumor virus (MMTV) long terminal repeat were provided by Dr. W. J. Muller (McMaster University, Ontario, Canada) and then bred at AECOM. At the age of 10 weeks these mice have multiple mammary tumors 0.15-0.17 cm in diameter. In mice older than 18 weeks the tumors are more than 1 cm in diameter. MMTV-NeuT mice (Muller et al. 1988), which carry erbB-2 (Neu), one of the better known human breast cancer oncogenes, were purchased from Jackson Laboratories. MMTV-NeuT mice were obtained as retired breeders and some of them developed mammary tumors at the age of 5 months, whereas others remained-tumor free until 6-7 months of age. C3H/B6 female mice lacking the PyMT transgene were used as healthy controls in therapy experiments. […]
Imaging of mice with ^18F-FDG. […] The tumor to liver ratios (TLRs) were calculated by the formula TLR=counts per pixel in tumor divided by counts per pixel in liver.

[2] = Human Maximum Tolerated Dose (MTD) of ^18F-FDG, organ dosimetry calculation; details: for 5 Ci FDG Organ dose / 7.5 Ci FDG Organ dose / MTD FDG (calculated MTD of ^18F-FDG for the organ): 70 Kg person
Method: The dose-limiting organ for therapy with ^18F-FDG is the bone marrow. The activity of ^18F-FDG that will deliver doses of 200 rad to the red marrow (less than 5% damage in 5 years) (Early and Sodee, 1995) and also 300 rad were calculated using the Medical Internal Radionuclide Dosimetry formalism. A dose of 300 rad was considered because it causes acceptable and manageable hematologic toxicity in selected patients (Early and Sodee, 1995). The subsequent doses delivered to ^18F-FDG-avid tumors were calculated.
Human Maximum Tolerated Dose (MTD) of ^18F-FDG. Table 1 indicates the radiation dose (Column 2) to each organ (Column 1) from 1mCi of ^18F-FDG for a 70 Kg person. The tolerated radiation dose of each organ (5% complications in 5 years) is described in Table 1, Column 3. The MTD of ^18F-FDG for each organ is described in Table 1, Column 4. The smallest value in this column is 4.88 Ci, which is the MTD of ^18F-FDG for a 70 Kg person, delivering 200 cGy to the ovaries. This is the critical organ for female patients; however, female patients with metastatic cancer have usually undergone chemotherapy causing ovarian failure or may choose to accept ovarian failure as a side effect of therapy. If ovarian function is not a consideration, then the critical organ is the bone marrow for both male and female patients. A dose of 5.00 Ci of ^18F-FDG would deliver 200 cGy to the bone marrow of a 70 Kg person.

O=C[C@H]([18F])[C@@H](O)[C@H](O)[C@H](O)CO [^18F-FDG, ^18F-2-deoxy-2-fluoro-D-glucose]
tumor to liver ratio (TLR), mean±SD [1]: 1.6±0.1
5 Ci FDG Organ dose ([2]; Bone marrow): 200 cGy
7.5 Ci FDG Organ dose ([2]; Bone marrow): 300 cGy
5 Ci FDG Organ dose ([2]; Brain): 850 cGy
7.5 Ci FDG Organ dose ([2]; Brain): 1275 cGy
MTD FDG (calculated MTD of ^18F-FDG for the organ) ([2]; Brain, organ MTD 4500 cGy (5% complications in 5 years)): 26.47 Ci
5 Ci FDG Organ dose ([2]; Heart wall): 1250 cGy
7.5 Ci FDG Organ dose ([2]; Heart wall): 1875 cGy
MTD FDG (calculated MTD of ^18F-FDG for the organ) ([2]; Heart wall, organ MTD 4000 cGy (5% complications in 5 years)): 16.00 Ci
5 Ci FDG Organ dose ([2]; Kidneys): 390 cGy
7.5 Ci FDG Organ dose ([2]; Kidneys): 585 cGy
MTD FDG (calculated MTD of ^18F-FDG for the organ) ([2]; Kidneys, organ MTD 2300 cGy (5% complications in 5 years)): 29.49 Ci
5 Ci FDG Organ dose ([2]; Liver): 440 cGy
7.5 Ci FDG Organ dose ([2]; Liver): 660 cGy
MTD FDG (calculated MTD of ^18F-FDG for the organ) ([2]; Liver, organ MTD 3000 cGy (5% complications in 5 years)): 34.09 Ci
5 Ci FDG Organ dose ([2]; Lungs): 280 cGy
7.5 Ci FDG Organ dose ([2]; Lungs): 420 cGy
MTD FDG (calculated MTD of ^18F-FDG for the organ) ([2]; Lungs, organ MTD 6500 cGy (5% complications in 5 years)): 116.07 Ci
5 Ci FDG Organ dose ([2]; Ovaries): 205 cGy
7.5 Ci FDG Organ dose ([2]; Ovaries): 308 cGy
MTD FDG (calculated MTD of ^18F-FDG for the organ) ([2]; Ovaries, organ MTD 200 cGy (5% complications in 5 years)): 4.88 Ci
5 Ci FDG Organ dose ([2]; Testes): 205 cGy
7.5 Ci FDG Organ dose ([2]; Testes): 308 cGy
MTD FDG (calculated MTD of ^18F-FDG for the organ) ([2]; Testes, organ MTD 500 cGy (5% complications in 5 years)): 12.20 Ci
5 Ci FDG Organ dose ([2]; Urinary bladder): 1350 cGy
7.5 Ci FDG Organ dose ([2]; Urinary bladder): 2025 cGy
MTD FDG (calculated MTD of ^18F-FDG for the organ) ([2]; Urinary bladder, organ MTD 6500 cGy (5% complications in 5 years)): 24.07 Ci
dose to the brain ([2]; administered dose of 7.50 Ci): 1275 rad
